Data on 2 compounds can be found in US20200115446A1 (NATIONAL UNIVERSITY CORPORATION HOKKAIDO UNIVERSITY, priority 2017, published 2020).

Holding throughout (assay type): in vivo, rat
Series [1] relates to serum osteocalcin. Description: Bone formation marker (serum osteocalcin) by ELISA, growing healthy rats. The settings on record: age of 12 weeks, vs. Ct1 group. On the procedure: (§1) 6-week-old growing male F344 rats were used.
(§2) (2) Experimental Groups (n=10 in Each Group) (i) Control group (hereinafter, referred to as “Ct1 group”) (ii) Anti-Siglec-15 antibody administration group (hereinafter, referred to as “Sig-15 Ab administration group”): The #32A1 antibody was used as an anti-Siglec-15 antibody. The anti-Siglec-15 antibody was subcutaneously administered once every 3 weeks at a dosage of 0.25, 1 or 4 mg/kg.
(§3) 6 weeks after the start of administration (age of 6 weeks to age of 12 weeks). After the end of the period (age of 12 weeks), the animals were euthanized, and evaluation was performed.
(§4) Before the start of administration, and 6 weeks after administration and before euthanasia, blood was collected from the tail vein, and the values of a bone formation marker (serum osteocalcin) and a bone resorption marker (serum TRACP-5b) were measured by an ELISA method.
Background: ELISA stands for enzyme-linked immunosorbent assay.

Series [2] in a line: Body weight, head trunk length and femur length, pediatric steroid-induced osteoporosis model rats. The following applies: GC model rats. On the procedure: (§5) 6-week-old growing female LEW/Cr1Crlj rats were used.
(§6) On the other hand, a steroid-induced osteoporosis model with rats has not been established. Thus, in this Example, a model rat with Prednisolone 25 mg/pellet/60 days implanted under the skin of a 6-week-old female LEW/Cr1Crlj rat was employed as a pediatric steroid-induced osteoporosis model. In this model, it was confirmed that 2, 4 and 6 weeks after implantation of prednisolone, the femur BMD decreased, and the maximum stress of each of the femur and the lumber vertebra decreased.
(§7) (3) Experimental Group (n=10 in Each Group) (i) Sham group: Sham-operation+Vehicle (PBS) (subcutaneous administration) (ii) GC group: Prednisolone (PSL) pellet 25 mg/pellet/60 days-subcutaneous implantation (GC)+Vehicle (PBS) (subcutaneous administration) (iii) GC+Siglec-15Ab group: GC treatment was performed, and an anti-Siglec-15 antibody was subcutaneously administered once every 3 weeks at a dosage of 1 mg/kg (low dosage) or at a dosage of 10 mg/kg (high dosage). The #32A1 antibody was used as the anti-Siglec-15 antibody.
as §3
(§8) The head trunk length was measured 0, 3 and 6 weeks after administration. The body weight was measured once a week.
(§9) The femur length was measured under anesthesia every 3 weeks by micro-CT imaging.
(§10) Micro-CT imaging of the femur and the tibia was performed, and the right femur length was measured.

Series [3] concerns growth cartilage and primary spongiosa region. Kind of series: Micro-CT and histological evaluation of growth at the proximal tibia, growing healthy rats. How it is done:
as §1, §2, §3
For bone labeling, calcein was administered 7 days before and 3 days before euthanasia (at an interval of 4 days). The calcein was dissolved in a 1.4% sodium bicarbonate solution at a concentration of 10 mg/ml, and subcutaneously injected to each animal at a dosage of 10 mg/kg.
(§11) Micro-CT imaging of the femur, the tibia and the fifth lumber vertebra was performed, and the right femur major axis length was measured.
Non-decalcified hard tissue sample: a coronal section tissue of proximal left tibia ½ (length: about 1.5 cm) was used. The tissue was immersed and fixed in 70% ethanol, and then stored in a cool and dark place. The resulting non-decalcified hard tissue sample was used for Villanueva staining, bright-field observation and fluorescent observation, and quantitative bone morphometry.
(§12) Decalcified tissue sample: knee joint disarticulation was performed, and samples of a coronal section tissue of the proximal tibia (proximal right knee tibia ½) and a fifth lumber vertebra coronal section tissue were prepared.
With the non-decalcified hard tissue sample and the decalcified tissue sample, the growth cartilage plate width and the longitudinal growth rate were histologically measured to evaluate growth disorder (“Modern Bone Histomorphometry”, 2014, WENET, Inc.).
(§13) Osteoclastic cells were detected and evaluated by chemical staining with tartrate-resistant acid phosphatase (TRACP) (hereinafter, referred to as “TRACP staining”) and counter staining with methyl green. The growth cartilage part was detected and evaluated by safranine O staining (staining of acidic mucopolysaccharide).

Series [4] has the same test system. Description: Micro-CT and histological evaluation of growth at the proximal tibia, pediatric steroid-induced osteoporosis model rats. The following applies: GC model rats. How it is done: as §5, §6, §7, §3
For bone labeling, tetracycline was administered 5 days before euthanasia, and calcein was administered 2 days before euthanasia (at an interval of 3 days). The animals were killed 36 hours after calcein administration. […]
as §10
Non-decalcified hard tissue sample: a coronal section tissue of proximal left tibia ½ (length: about 1.5 cm) was used. […] The non-decalcified hard tissue sample was stained by Villanueva staining and was used for bright-field observation and fluorescent observation, and quantitative bone morphometry. […]
Regarding growth disorder, there was the possibility that administration over a period of 6 weeks would not cause a change leading to generation of a difference in femur length, and therefore the growth cartilage plate width and the longitudinal growth rate were histologically measured using the non-decalcified tissue and the decalcified tissue to evaluate growth disorder (“Modern Bone Histomorphometry”, 2014, WENET, Inc.).
In FIG. 10-1(B), the part labeled in parallel to the growth cartilage and at a distal position represents the region labeled 2 days before euthanasia (white lower arrow), and the part labeled in parallel and at a further distal position represents the region labeled 5 days before euthanasia (white upper arrowhead). The bone growth rate was evaluated on the basis of the distance between the two labeled regions.

Series [5] can be described thus: Bone mass (micro-CT, bone microstructure analysis) and BMD (DXA) of the distal femur, pediatric steroid-induced osteoporosis model rats. The following applies: GC model rats, age of 12 weeks.
Procedure: (3) Experimental Group (n=10 in Each Group) (i) Sham group: Sham-operation+Vehicle (PBS) (subcutaneous administration) (ii) GC group: Prednisolone (PSL) pellet 25 mg/pellet/60 days-subcutaneous implantation (GC)+Vehicle (PBS) (subcutaneous administration) (iii) GC+Siglec-15Ab group: GC treatment was performed, and an anti-Siglec-15 antibody was subcutaneously administered once every 3 weeks at a dosage of 1 mg/kg (low dosage) or at a dosage of 10 mg/kg (high dosage). […] (iv) GC+ALN group: GC treatment was performed, and ALN was subcutaneously administered twice a week at a dosage of 0.014 mg/kg (low dosage) or at a dosage of 0.140 mg/kg (high dosage).
BMD and BMC measurements of the lumber vertebra and the distal left femur were performed by a DXA method using a bone densitometer (manufactured by Hitachi Medical, Ltd.).
Series [6] in a line: Bone mass (micro-CT) and bone mineral density (DXA), growing healthy rats. The settings on record: for BMD value (DXA) / trabecular bone mass (3D-CT): vs. Ct1 group. On the procedure: as §1, §2, §3, §11
BMD measurement of the lumber vertebra (first to third lumber vertebrae) and the left distal femur end was performed by dual energy X-ray absorptiometric (DXA) method using a bone mineral density measuring apparatus (manufactured by Hitachi Aloka Medical, Ltd.).

Series [7] has as its system osteoclasts. Description: TRACP staining of osteoclasts, growing healthy rats. The settings on record: age of 12 weeks, vs. Ct1 group. On the procedure: as §1, §2, §3, §12, §13
A short description of series [8]: Compression mechanical test of lumber vertebral body and distal femur metaphysis, growing healthy rats. The following applies: age of 12 weeks, vs. Ct1 group. On the procedure: as §1, §2, §3
The second, third, fourth and sixth lumber vertebral bodies and the distal metaphysis of the left femur were subjected to a compression test, and the ultimate load (maximum load endured before fracture), stiffness (resistance to deformation) and toughness (energy required before fracture) were evaluated.

The subject of series [9] is serum TRACP-5b. Kind of series: Bone resorption marker (serum TRACP-5b) by ELISA, growing healthy rats. The settings on record: age of 12 weeks. On the procedure: as §1, §2, §3, §4
Series [10] relates to serum osteocalcin. Kind of series: Bone formation marker (serum osteocalcin) by ELISA, pediatric steroid-induced osteoporosis model rats. The following applies: GC model rats, age of 12 weeks, vs. GC group. How it is done: as §5, §6
(§14) (3) Experimental Group (n=10 in Each Group) (i) Sham group: Sham-operation+Vehicle (PBS) (subcutaneous administration) (ii) GC group: Prednisolone (PSL) pellet 25 mg/pellet/60 days-subcutaneous implantation (GC)+Vehicle (PBS) (subcutaneous administration) (iii) GC+Siglec-15Ab group: GC treatment was performed, and an anti-Siglec-15 antibody was subcutaneously administered once every 3 weeks at a dosage of 1 mg/kg (low dosage) or at a dosage of 10 mg/kg (high dosage). The #32A1 antibody was used as the anti-Siglec-15 antibody. […]
(§15) Before the start of administration, and 6 weeks after administration and before euthanasia, blood was collected from the tail vein, and the values of a bone formation marker (serum osteocalcin) and a bone resorption marker (serum TRACP-5b) in the blood were measured by an ELISA method.

Series [11] deals with osteoclasts. Description: TRACP staining of osteoclasts in the primary spongiosa region, pediatric steroid-induced osteoporosis model rats. The settings on record: GC model rats, proximal tibia, age of 12 weeks, vs. GC group (ALN also vs. Sham group). On the procedure:
as §5, §6, §7
(§16) 6 weeks after the start of administration (age of 6 weeks to age of 12 weeks). After the end of the period (age of 12 weeks), the animals were euthanized, and evaluation was performed. […]

The nature of series [12]: Head trunk length and femur length, growing healthy rats. The following applies: age of 12 weeks, vs. Ct1 group. How it is done:
as §1, §2, §3, §8, §9, §11

Series [13] in a line: Compression test of the distal femur end, pediatric steroid-induced osteoporosis model rats. The settings on record: GC model rats, age of 12 weeks, vs. GC group. On the procedure: as §5, §6, §7, §16
For series [14], the system named is serum TRACP-5b. Description: Bone resorption marker (serum TRACP-5b) by ELISA, pediatric steroid-induced osteoporosis model rats. The settings on record: after 6 weeks (age of 12 weeks). How it is done:
as §5, §6, §14, §15

The nature of series [15]: Confirmation of the prednisolone pellet model of pediatric steroid-induced osteoporosis. The following applies: 2, 4 and 6 weeks after implantation of Prednisolone 25 mg/pellet/60 days. How it is done:
as §6
Prednisolone 25 mg/pellet/60 days is administered at a dose of 0.42 mg a day. This dose is equivalent to 3.5 mg/kg/day for a 6-week-old rat (body weight: 120 g), and equivalent to 105 mg/day for a child having a body weight of 30 kg.

The mark [16] stands for this setting: age of 6 weeks to 12 weeks, vs. GC group.
Setting [17] is: high-dosage administration group.
Setting [18] is: proximal tibia, age of 12 weeks, vs. Ct1 group.
The mark [19] stands for this setting: proximal tibia, age of 12 weeks, vs. Sham, GC and GC+Siglec-15 Ab groups.
Where [20] appears, read: lumber vertebra, age of 12 weeks.
The mark [21] stands for this setting: distal femur metaphysis compression test.
[22] abbreviates: lumber vertebra compression test.

Entries after “also recorded” stand apart in the source; their conditions may differ.

Take `NCCCC(O)(P(=O)(O)O)P(=O)(O)O` [ALN, Alendronate]: the serum osteocalcin level result in the series with serum osteocalcin [1] is “not significantly different”. For the same compound, in series [2] (setting [16]), the “amount of change in body weight” value is “no significant difference”, the “amount of change in femur length” value is “no significant difference” and the “amount of change in head trunk length” value is “no significant difference”. In series [2] (setting [17]), the femur length result is listed as “tended to decrease” and the head trunk length entry was “tended to decrease”. Further, the “growth cartilage plate width (3D-CT image)” value in series [3] (age of 12 weeks, ALN particularly high dosage) is recorded as “decreased”. Further, in series [3] (age of 12 weeks, vs. Ct1 group, ALN particularly high dosage), the “shape of the proximal tibia in 3D-CT images” value is reported as “cup-like shape”. The “arrangement of safranine O staining positive growth cartilage regions” value in series [3] (proximal tibia, age of 12 weeks) is given as “disordered arrangement”. In series [3] (setting [18]), the “growth cartilage width (tissue sample)” value is on record as “decreased; also recorded: significantly inferior” and the “safranine O staining positive regions in the bone in the primary spongiosa region” value is “expanded”. Further, the bone growth rate entry in [3] (proximal tibia, calcein labeling 7 and 3 days before euthanasia, vs. Ct1 group) is on record as “low bone growth rate; also recorded: significantly inferior”. For the same compound, the “shape of the proximal tibia in 3D-CT images” value in series [4] (age of 12 weeks, vs. Sham group, ALN high dosage) is listed as “cup-like (cupping) shape”. Also, in series [4] (setting [19]), the growth cartilage width result is “tended to slightly decrease, but was not statistically significantly different” and the “safranine O staining positive regions (cartilage matrix) in the bone in the primary spongiosa region” value is reported as “more safranine O staining positive (red) regions”. Besides, the bone growth rate entry in series [4] (proximal tibia, tetracycline/calcein labeling, among Sham, GC and treated groups) was “no significant difference”. The “BMD of the distal femur (DXA)” value in series [5] (vs. GC group) is “increased in a dosage-dependent manner”. Further, the “bone mass (3D-CT), region immediately above the growth plate to the proximal femur” value in series [5] (distal femur metaphysis) is given as “increased in a dosage-dependent manner”. The “bone mass (BV/TV)” value in series [5] (secondary spongiosa region of distal femur, vs. GC group, ALN high dosage) is “significantly increased”. Further, in series [6] (distal femur, age of 12 weeks), the “BMD value (DXA)” value is given as “increased depending on the dosage” and the “trabecular bone mass (3D-CT)” value is “increased depending on the dosage”. Also, in [6] (long bone, particularly high-dosage group), the “bone trabecular thickness (histological)” value is “increased”. Besides, in series [6] (setting [20]), the “bone mass in the primary spongiosa (3D-CT)” value was “particularly increased”, the “BMD value (DXA)” value is “increased depending on the dosage” and the “trabecular bone mass (3D-CT)” value is listed as “increased depending on the dosage”. Further, the “number of TRACP positive cells in the secondary spongiosa region” value in the series on osteoclasts [7] (lumber vertebra) is “decreased”. Further, in the series with osteoclasts [7] (proximal tibia), the “number of TRACP positive cells in primary spongiosa region” value was “evidently decreased” and the “number of TRACP positive cells in secondary spongiosa region” value is “decreased”. In series [8] (setting [21]), the stiffness result is listed as “increased in a dosage-dependent manner”, the toughness result was “increased in a dosage-dependent manner” and the ultimate load entry is given as “increased in a dosage-dependent manner”. In addition, in series [8] (setting [22]), the stiffness result is “significantly increased” and the ultimate load entry is on record as “significantly increased”. For the same compound, in the series with serum TRACP-5b [9], the “serum TRACP-5b level” value is “decreased depending on the dosage”. Also, the serum osteocalcin level result with serum osteocalcin [10] was “not significantly different”. Further, the “number of TRACP positive cells in the primary spongiosa region” value in the series on osteoclasts [11] is recorded as “significantly decreased”. In series [12], the femur length result is reported as “decreased” and the head trunk length entry is listed as “decreased”. For the same compound, in [13], the maximum stress entry is “tended to increase, and were not significantly different”; the toughness entry was “tended to increase, and were not significantly different”. Besides, in the series with serum TRACP-5b [14] (GC model rats, in contrast to GC group), the “serum TRACP-5b level” value is listed as “significantly decreased”.

Consider `C[C@]12C=CC(=O)C=C1CC[C@@H]1[C@@H]2[C@@H](O)C[C@@]2(C)[C@H]1CC[C@]2(O)C(=O)CO` [prednisolone, Prednisolone], for which, in [15], the “maximum stress of the femur” value is “decreased” and the “maximum stress of the lumber vertebra” value is “decreased”. Also, the “femur BMD” value in series [15] (6-week-old female rat) was “decreased”. Besides, the “increase of the level of TRACP-5b” value in the series on serum TRACP-5b [14] (GC group (prednisolone pellet + vehicle)) stood at 75%.
